Results on 43 compounds are retold here after US8063053B2, “1-(arylsulfonyl)-4-(piperazin-1-yl)-1H-benzimidazoles as 5-hydroxytryptamine-6 ligands” (Wyeth LLC, priority 2008, dated 2011).

The assay addresses T1, serotonin 5-HT6 receptor subtype (Homo sapiens, UniProt P50406).
T1 construct: host or cells: CHO-Dukx-A2 cells, clone 50-7
The assay is described as follows: 5-HT6 binding affinity ([3H]-LSD SPA binding).

Where two headings read alike, the source gives them in different places.

T1 sequence (P50406 whole entry): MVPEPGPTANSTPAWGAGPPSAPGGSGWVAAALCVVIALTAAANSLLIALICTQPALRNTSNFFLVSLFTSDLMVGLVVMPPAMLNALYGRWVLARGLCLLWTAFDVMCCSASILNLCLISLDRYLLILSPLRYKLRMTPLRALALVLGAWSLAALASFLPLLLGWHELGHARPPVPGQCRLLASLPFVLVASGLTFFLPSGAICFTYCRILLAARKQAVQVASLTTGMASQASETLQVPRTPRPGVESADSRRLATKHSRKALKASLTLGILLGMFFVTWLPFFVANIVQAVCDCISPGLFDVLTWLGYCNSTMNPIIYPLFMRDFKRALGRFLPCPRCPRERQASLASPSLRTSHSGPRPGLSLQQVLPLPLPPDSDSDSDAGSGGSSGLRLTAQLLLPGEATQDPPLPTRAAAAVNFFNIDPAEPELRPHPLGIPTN

As to `Cc1nc2c(N3CCNC(C)C3)cccc2n1S(=O)(=O)c1ccccc1` (stereo in doubt) [Example 114, 2-methyl-4-[(3R)-3-methylpiperazin-1-yl]-1-(phenylsulfonyl)-1H-benzimidazole], the Ki (as a rule, the equilibrium dissociation constant of an inhibitor or competing ligand from its target) (read-out: 5-HT6 binding Ki) worked out at 3.17 nM.

`Cc1nc2c(N3CCNC(C)C3)cccc2n1S(=O)(=O)c1cccc2ccccc12` (stereo in doubt) [Example 115, 2-methyl-4-[(3R)-3-methylpiperazin-1-yl]-1-(1-naphthylsulfonyl)-1H-benzimidazole]: the Ki (read-out: 5-HT6 binding Ki) turned out to be 1.12 nM.

As for `Cc1nc2c(N3CCNC(C)C3)cccc2n1S(=O)(=O)c1ccccc1` (stereo in doubt) [Example 116, 2-methyl-4-[(3S)-3-methylpiperazin-1-yl]-1-(phenylsulfonyl)-1H-benzimidazole], where the note is “read-out: 5-HT6 binding Ki”, the Ki is 0.951 nM.

For the compound `Cc1nc2c(N3CCNC(C)C3)cccc2n1S(=O)(=O)c1cccc2ccccc12` (stereo in doubt) [Example 117, 2-methyl-4-[(3S)-3-methylpiperazin-1-yl]-1-(1-naphthylsulfonyl)-1H-benzimidazole], the Ki (read-out: 5-HT6 binding Ki) stood at 0.305 nM.

In the case of `CN1CCN(c2cccc3c2ncn3S(=O)(=O)c2cccc3ccccc23)CC1` [Example 1, 4-(4-methylpiperazin-1-yl)-1-(naphthalen-1-ylsulfonyl)-1H-benzo[d]imidazole], the Ki (read-out: 5-HT6 binding Ki) stood at 0.064 nM.

`O=S(=O)(c1cccc2ccccc12)n1cnc2c(N3CCNCC3)cccc21` [Example 2, 1-(naphthalen-1-ylsulfonyl)-4-(piperazin-1-yl)-1H-benzo[d]imidazole]: the Ki (read-out: 5-HT6 binding Ki) came out at 0.165 nM.

Compound `O=S(=O)(c1ccccc1)n1cnc2c(N3CCNCC3)cccc21` [Example 3, 1-(phenylsulfonyl)-4-(piperazin-1-yl)-1H-benzo[d]imidazole] had a Ki of 1.36 nM.

Turning to `Cc1nc2c(N3CCNCC3)cccc2n1S(=O)(=O)c1cccc2ccccc12` [Example 4, 2-methyl-1-(1-naphthylsulfonyl)-4-piperazin-1-yl-1H-benzimidazole], the Ki (read-out: 5-HT6 binding Ki) is 0.025 nM.

For the compound `Cc1nc2c(N3CCNCC3)cccc2n1S(=O)(=O)c1ccccc1` [Example 5, 2-methyl-1-(phenylsulfonyl)-4-piperazin-1-yl-1H-benzimidazole], the Ki (CHO-Dukx-A2 cells expressing 5-HT6 receptor (clone 50-7), 3 nM [3H]-LSD, PVT WGA SPA beads, Ki by Cheng-Prusoff, read-out: 5-HT6 binding Ki) is 0.53 nM.

On to `CCc1nc2c(N3CCNCC3)cccc2n1S(=O)(=O)c1ccccc1` [Example 6, 2-ethyl-1-(phenylsulfonyl)-4-piperazin-1-yl-1H-benzimidazole], for which, for the setting “read-out: 5-HT6 binding Ki”, the Ki turned out to be 0.447 nM.

Take `CCN1CCN(c2cccc3c2ncn3S(=O)(=O)c2ccccc2)CC1` [Example 7, 4-(4-ethylpiperazin-1-yl)-1-(phenylsulfonyl)-1H-benzimidazole]: for the setting “read-out: 5-HT6 binding Ki”, the Ki was 0.394 nM.

As to `CCCCc1nc2c(N3CCNCC3)cccc2n1S(=O)(=O)c1ccccc1` [Example 8, 2-butyl-1-(phenylsulfonyl)-4-piperazin-1-yl-1H-benzimidazole], the Ki (read-out: 5-HT6 binding Ki) was determined as 1.1 nM.

On to `Cc1nc2c(N3CCN(C)CC3)cccc2n1S(=O)(=O)c1cccc2ccccc12` [Example 9, 2-methyl-4-(4-methylpiperazin-1-yl)-1-(1-naphthylsulfonyl)-1H-benzimidazole], for which the Ki (read-out: 5-HT6 binding Ki) is 0.004 nM.

In the case of `O=S(=O)(c1ccc(Cl)cc1)n1cnc2c(N3CCNCC3)cccc21` [Example 10, 1-[(4-chlorophenyl)sulfonyl]-4-piperazin-1-yl-1H-benzimidazole], the Ki (read-out: 5-HT6 binding Ki) amounted to 1.32 nM.

Take `O=S(=O)(c1ccccc1Cl)n1cnc2c(N3CCNCC3)cccc21` [Example 11, 1-[(2-chlorophenyl)sulfonyl]-4-piperazin-1-yl-1H-benzimidazole]: under “read-out: 5-HT6 binding Ki”, the Ki is 0.269 nM.

On to `CN1CCN(c2cccc3c2ncn3S(=O)(=O)c2ccccc2)CC1` [Example 12, 4-(4-methylpiperazin-1-yl)-1-(phenylsulfonyl)-1H-benzimidazole], for which the inhibitory constant (Ki) (read-out: 5-HT6 binding Ki) came out at 1.66 nM.

With `COc1ccc(S(=O)(=O)n2c(C)nc3c(N4CCNCC4)cccc32)cc1` [Example 13, 1-[(4-methoxyphenyl)sulfonyl]-2-methyl-4-piperazin-1-yl-1H-benzimidazole], for the setting “read-out: 5-HT6 binding Ki”, the Ki stood at 1.82 nM.

On to `Cc1nc2c(N3CCNCC3)cccc2n1S(=O)(=O)c1cccc(OC(F)(F)F)c1` [Example 14, 2-methyl-4-piperazin-1-yl-1-{[3-(trifluoromethoxy)phenyl]sulfonyl}-1H-benzimidazole], for which the Ki (read-out: 5-HT6 binding Ki) is 2.3 nM.

Regarding `Cc1nc2c(N3CCNCC3)cccc2n1S(=O)(=O)c1ccccc1Cl` [Example 15, 1-[(2-chlorophenyl)sulfonyl]-2-methyl-4-piperazin-1-yl-1H-benzimidazole], the Ki (read-out: 5-HT6 binding Ki) is 0.99 nM.

`Cc1nc2c(N3CCNCC3)cccc2n1S(=O)(=O)c1cccc(Cl)c1` [Example 16, 1-[(3-chlorophenyl)sulfonyl]-2-methyl-4-piperazin-1-yl-1H-benzimidazole]: for the setting “read-out: 5-HT6 binding Ki”, the Ki was 0.99 nM.

For `Cc1nc2c(N3CCNCC3)cccc2n1S(=O)(=O)c1ccc(Cl)cc1` [Example 17, 1-[(4-chlorophenyl)sulfonyl]-2-methyl-4-piperazin-1-yl-1H-benzimidazole], for the setting “read-out: 5-HT6 binding Ki”, the Ki was found to be 6 nM.

With `Cc1cccc(S(=O)(=O)n2c(C)nc3c(N4CCNCC4)cccc32)c1` [Example 18, 2-methyl-1-[(3-methylphenyl)sulfonyl]-4-piperazin-1-yl-1H-benzimidazole], under “read-out: 5-HT6 binding Ki”, the Ki worked out at 1.3 nM.

On to `O=S(=O)(c1cccc(Cl)c1)n1cnc2c(N3CCNCC3)cccc21` [Example 19, 1-[(3-chlorophenyl)sulfonyl]-4-piperazin-1-yl-1H-benzimidazole], for which the Ki (read-out: 5-HT6 binding Ki) is 4.3 nM.

As for `O=S(=O)(c1ccc(F)cc1)n1cnc2c(N3CCNCC3)cccc21` [Example 20, 1-[(4-fluorophenyl)sulfonyl]-4-piperazin-1-yl-1H-benzimidazole], under “read-out: 5-HT6 binding Ki”, the Ki was 25 nM.

For `O=S(=O)(c1ccccc1F)n1cnc2c(N3CCNCC3)cccc21` [Example 21, 1-[(2-fluorophenyl)sulfonyl]-4-piperazin-1-yl-1H-benzimidazole], the Ki (read-out: 5-HT6 binding Ki) turned out to be 3 nM.

As for `O=S(=O)(c1cccc(F)c1)n1cnc2c(N3CCNCC3)cccc21` [Example 22, 1-[(3-fluorophenyl)sulfonyl]-4-piperazin-1-yl-1H-benzimidazole], the Ki (read-out: 5-HT6 binding Ki) came to 1.5 nM.

Turning to `O=S(=O)(c1ccc2ccccc2c1)n1cnc2c(N3CCNCC3)cccc21` [Example 23, 1-(2-naphthylsulfonyl)-4-piperazin-1-yl-1H-benzimidazole], for the setting “read-out: 5-HT6 binding Ki”, the Ki stood at 10.6 nM.

As for `COc1ccc(S(=O)(=O)n2cnc3c(N4CCNCC4)cccc32)cc1` [Example 24, 1-[(4-methoxyphenyl)sulfonyl]-4-piperazin-1-yl-1H-benzimidazole], the Ki (read-out: 5-HT6 binding Ki) came out at 15.1 nM.

Take `O=S(=O)(c1ccc(OC(F)(F)F)cc1)n1cnc2c(N3CCNCC3)cccc21` [Example 25, 4-piperazin-1-yl-1-{[4-(trifluoromethoxy)phenyl]sulfonyl}-1H-benzimidazole]: the Ki (read-out: 5-HT6 binding Ki) came to 89 nM.

In the case of `Cc1nc2c(N3CCNCC3)cccc2n1S(=O)(=O)c1cccc(F)c1` [Example 26, 1-[(3-fluorophenyl)sulfonyl]-2-methyl-4-piperazin-1-yl-1H-benzimidazole], the Ki (read-out: 5-HT6 binding Ki) is 1.7 nM.

Turning to `Cc1ccc(S(=O)(=O)n2cnc3c(N4CCNCC4)cccc32)cc1` [Example 27, 1-[(4-methylphenyl)sulfonyl]-4-piperazin-1-yl-1H-benzimidazole], the Ki (read-out: 5-HT6 binding Ki) was found to be 2.5 nM.

Take `O=S(=O)(c1cccc(OC(F)(F)F)c1)n1cnc2c(N3CCNCC3)cccc21` [Example 28, 4-piperazin-1-yl-1-{[3-(trifluoromethoxy)phenyl]sulfonyl}-1H-benzimidazole]: the Ki (read-out: 5-HT6 binding Ki) turned out to be 1.95 nM.

Take `O=S(=O)(c1ccc(F)c(Cl)c1)n1cnc2c(N3CCNCC3)cccc21` [Example 29, 1-[(3-chloro-4-fluorophenyl)sulfonyl]-4-piperazin-1-yl-1H-benzimidazole]: the Ki (read-out: 5-HT6 binding Ki) worked out at 11.7 nM.

Take `Cc1nc2c(N3CCNCC3)cccc2n1S(=O)(=O)c1ccc(OC(F)(F)F)cc1` [Example 30, 2-methyl-4-piperazin-1-yl-1-{[4-(trifluoromethoxy)phenyl]sulfonyl}-1H-benzimidazole]: the Ki (read-out: 5-HT6 binding Ki) is 15.8 nM.

Take `Cc1ccc(S(=O)(=O)n2c(C)nc3c(N4CCNCC4)cccc32)cc1` [Example 31, 2-methyl-1-[(4-methylphenyl)sulfonyl]-4-piperazin-1-yl-1H-benzimidazole]: where the note is “read-out: 5-HT6 binding Ki”, the Ki came to 0.467 nM.

Take `Cc1nc2c(N3CCNCC3)cccc2n1S(=O)(=O)c1ccccc1F` [Example 32, 1-[(2-fluorophenyl)sulfonyl]-2-methyl-4-piperazin-1-yl-1H-benzimidazole]: the Ki (read-out: 5-HT6 binding Ki) came out at 2.5 nM.

Regarding `O=S(=O)(c1ccccc1OC(F)(F)F)n1cnc2c(N3CCNCC3)cccc21` [Example 33, 4-piperazin-1-yl-1-{[2-(trifluoromethoxy)phenyl]sulfonyl}-1H-benzimidazole], the Ki (read-out: 5-HT6 binding Ki) came to 0.72 nM.

As to `COc1cccc(S(=O)(=O)n2cnc3c(N4CCNCC4)cccc32)c1` [Example 34, 1-[(3-methoxyphenyl)sulfonyl]-4-piperazin-1-yl-1H-benzimidazole], the Ki (read-out: 5-HT6 binding Ki) came out at 1.2 nM.

As for `Cc1ccc(S(=O)(=O)n2cnc3c(N4CCNCC4)cccc32)c2ccccc12` [Example 35, 1-[(4-methyl-1-naphthyl)sulfonyl]-4-piperazin-1-yl-1H-benzimidazole], under “read-out: 5-HT6 binding Ki”, the Ki was found to be 1.1 nM.

As to `Cc1cccc(S(=O)(=O)n2cnc3c(N4CCNCC4)cccc32)c1` [Example 36, 1-[(3-methylphenyl)sulfonyl]-4-piperazin-1-yl-1H-benzimidazole], the Ki (read-out: 5-HT6 binding Ki) came to 1.11 nM.

In the case of `Cc1nc2c(N3CCNCC3)cccc2n1S(=O)(=O)c1ccc(F)cc1` [Example 38, 1-[(4-fluorophenyl)sulfonyl]-2-methyl-4-piperazin-1-yl-1H-benzimidazole], the Ki (read-out: 5-HT6 binding Ki) stood at 10.5 nM.

As for `Cc1ccccc1S(=O)(=O)n1cnc2c(N3CCNCC3)cccc21` [Example 39, 1-[(2-methylphenyl)sulfonyl]-4-piperazin-1-yl-1H-benzimidazole], the Ki (read-out: 5-HT6 binding Ki) stood at 1.15 nM.

Turning to `O=S(=O)(c1ccc(C(F)(F)F)cc1)n1cnc2c(N3CCNCC3)cccc21` [Example 40, 4-piperazin-1-yl-1-{[4-(trifluoromethyl)phenyl]sulfonyl}-1H-benzimidazole], the Ki (read-out: 5-HT6 binding Ki) stood at 18.9 nM.
